Experimental data taken from patent publication US20210363170A1, “4'-THIO-NUCLEOTIDE AND -NUCLEOSIDE PRODRUGS FOR THE TREATMENT OF CANCER” (Southern Research Institute, priority 2018, published 2021).
Where two headings read alike, the source gives them in different places.

How the values were obtained:
Type in all cases: cell-based
[1] = test system: KG-1a cells; experiment: Cell viability assay (CellTiter Glo, 72 hours) in KG-1a cells; settings: read-out: Cell Line IC50 (μM) KG-1a
Protocol: (§1) KG1a (CCL-246.1, ATCC) and CCRF-CEM (CCL-199, ATCC) cells were grown in RPMI-1640 media containing 10% FBS in T-75 flasks to a density of 1×10^6 cells per mL. Exponentially gown cells were used for the assay. Day 1: 7.5×10^3 cells were seeded in each well of 96 well plate. Day 2: Cells were treated with serial dilutions of each compound (starting 20 uM) or with DMSO as control for 72 hours. Day 5: CellTiter Glo (G9241, Promega) was added to the media of each well and measured by plate reader (Synergy 4, Biotek). Data analysis: Using GraphPad Prism 7 (GraphPad).

[2] = test system: CCRF-CEM cells; experiment: Cell viability assay (CellTiter Glo, 72 hours) in CEM cells; settings: read-out: Cell Line IC50 (μM) CEM
Protocol: as §1

[3] = test system: DNMT-1; experiment: Western blot analysis of DNMT-1 in CEM cells; settings: DNMT-1 depletion in CEM cells, 96 hours
Protocol: Cells were treated with serial dilutions of each compound (starting 100 uM for HCT-116 and NCI-H23 cells, and 20 uM for KG-1a and CCRF-CEM cells) or with DMSO as control for 96 hours. Cell lysates were collected and proteins were separated with a SDS-PAGE gel, transferred to a nitrocellulose membrane, blocked in 5% non-fat milk in TBS-T, and probed with anti DNMT-1 (1:7000) rabbit polyclonal antibodies (cat #ab19905, Abcam) in 5% non-fat milk in TBS-T overnight. Membranes were washed three times with TBS-T. The anti-rabbit IgG (7074p2, Cell Signaling) secondary antibody was added at a concentration of 1:5000 in 5% non-fat milk in TBS-T for two hours in room temperature. Membranes were then washed three times with TBS-T, 5 minutes each time. Membranes were then incubated with SuperSignal West Pico Chemiluminescent Substrate (#34080 Thermo) and exposed onto film. Membranes were stripped with stripping buffer (#21059, Thermo) and re-probed with mouse anti tubulin 1:10,000 (T9026, Sigma) and anti-mouse IgG 1:5,000 (70′76p2, Cell Signaling).

[4] = test system: CEM cells; experiment: Nucleoside transporter (hENT-1) activity: CEM cell viability with or without the hENT-1 inhibitor dipyridamole; settings: for IC50: CEM cells, 72 hours
Protocol: 7.5×10^3 cells/well were plated in a 96 well plate in duplicate. Either compound 2 and Aza-T-dCyd were dosed at a 1:5 10-point serial dilution with a top dose of 5 μM in the presence of 5 μM Dipyridamole (DPD, Sigma Cat #: D9766 CAS 58-32-2), a hENT-1 inhibitor. Cells were cultured in the presence of compound for 72 hours. CellTiter Glo (G9241, Promega) was added to the media of each well and measured by a plate reader (Synergy 4, Biotek). The results were analyzed by GraphPad Prism 7 (GraphPad).

[5] = test system: HCT-116 cells; experiment: Cytidine deaminase (CDA) activity: HCT-116 cell viability with or without the CDA inhibitor tetrahydrouridine; settings: for IC50: HCT-116 cells, 72 hours
Protocol: […] cells/well were plated in a 96 well plate in duplicate. Tetrahydrouridine (THU), a Cytidine Deaminase inhibitor was dosed at 1:5 10-point serial dilution, with a top dose of 100 μM, as a control. […] Cells were cultured in the presence of compound for 72 hours and then assayed by cell titer glow for viability.

[6] = test system: CEM cells; experiment: Deoxycytidine kinase (dCK) activity: CEM cell viability with or without 2'-deoxycytidine; settings: for IC50: CEM cells, 72 hours
Protocol: 7.5×10^3 cells/well were plated in a 96 well plate in duplicate. […] Cells were cultured in the presence of compound for 72 hours. CellTiter Glo (G9241, Promega) was added to the media of each well and measured by a plate reader (Synergy 4, Biotek). The results were analyzed by GraphPad Prism 7 (GraphPad).

| Molecule | IC50 [1] | IC50 [2] | IC50 [3] | IC50 ([4]; with 5 μM dipyridamole (hENT-1 inhibitor), read-out: CEM IC50 (μM) With DPD (5 μM)) | IC50 ([4]; without dipyridamole, read-out: CEM IC50 (μM) Without DPD) | reliance on hENT-1 to enter the cancer cells ([4]; conclusion in words from Table 3) | IC50 ([5]; with 20 μM tetrahydrouridine (CDA inhibitor), read-out: HCT-116 IC50 (μM) With THU (20 μM)) | IC50 ([5]; without tetrahydrouridine, read-out: HCT-116 IC50 (μM) Without THU) | overcoming cytidine deaminase compared to parent drug ([5]; conclusion in words from Table 4) | IC50 ([6]; with 20 μM 2'-deoxycytidine (dCK inhibitor), read-out: CEM IC50 (μM) With dCyd (20 μM)) | IC50 ([6]; without 2'-deoxycytidine, read-out: CEM IC50 (μM) Without dCyd) | reliance on dCK activation compared to parent drug ([6]; conclusion in words from Table 5) | IC50 ([1]; Homo sapiens) | IC50 ([2]; Homo sapiens, CCRF-CEM) | IC50 ([4]; Homo sapiens, CCRF-CEM, with 5 μM dipyridamole (hENT-1 inhibitor), read-out: CEM IC50 (μM) With DPD (5 μM)) | IC50 ([4]; Homo sapiens, CCRF-CEM, without dipyridamole, read-out: CEM IC50 (μM) Without DPD) | IC50 ([5]; Homo sapiens, with 20 μM tetrahydrouridine (CDA inhibitor), read-out: HCT-116 IC50 (μM) With THU (20 μM)) | IC50 ([5]; Homo sapiens, without tetrahydrouridine, read-out: HCT-116 IC50 (μM) Without THU) | IC50 ([6]; Homo sapiens, CCRF-CEM, with 20 μM 2'-deoxycytidine (dCK inhibitor), read-out: CEM IC50 (μM) With dCyd (20 μM)) | IC50 ([6]; Homo sapiens, CCRF-CEM, without 2'-deoxycytidine, read-out: CEM IC50 (μM) Without dCyd) |
| --- | --- | --- | --- | --- | --- | --- | --- | --- | --- | --- | --- | --- | --- | --- | --- | --- | --- | --- | --- | --- |
| 2-ethylbutyl ((S)-(((2R,3S,5R)-5-(4-amino-2-oxo-1,3,5-triazin-1(2H)-yl)-3-hydroxytetrahydrothiophen-2-yl)methoxy)(phenoxy)phosphoryl)-L-alaninate [Compound 3] | 1.5 µM | 0.16 µM | 620 nM | 3.1 µM | 0.35 µM | does not significantly rely on hENT-1 | 12 µM | 8 µM | did overcome CAD | 6.5 µM | 0.3 µM | does not rely on dCK activation | – | – | – | – | – | – | – | – |
| Nc1ncn([C@H]2C[C@H](O)[C@@H](CO)S2)c(=O)n1 [Aza-T-dCyd, 5-aza-4′-Thio-2′-deoxycytidine, reference compound] | – | – | 380 nM | – | – | – | – | – | – | – | – | – | 0.03 µM | 0.03 µM | > 3 µM | 0.03 µM | 0.7 µM | 7 µM | 19 µM | 0.03 µM |
